Non-standard residues stand in square brackets, D forms with d. Residues, ends and D or L forms follow the SMILES beside them. *: point of attachment. Phe(4-Cl) = N[C@@H](Cc1ccc(Cl)cc1)C(=O)O; hArg = N=C(N)NCCCC[C@H](N)C(=O)O; 12Ado = NCCCCCCCCCCCC(=O)O; Nle = CCCC[C@H](N)C(=O)O; Orn = NCCC[C@H](N)C(=O)O; Abu = CC[C@H](N)C(=O)O; PhAc = O=C(Cc1ccccc1)*
Assays:
Type in all cases: cell-based, human
Conditions in all cases: 5 μM, 72 h; relative to MIA602 = 1; Table 3A
NCI-N87 cells = assay: In vitro cell viability (CellTiter 96), stomach cancer N87
Method: (§1) The inhibitory effects of the various synthesized GHRH antagonists were tested in cell proliferation assays in various human cancer cell lines including stomach cancer (KATOIII, N87), colon cancer (HT-29), urothelial cancer (J82, RT4), pancreatic cancer (PANC-1, CFPAC-1), prostatic cancer (PC3), breast cancer (MX-1, HCC1806), ovarian cancer (SK-OV-3, OVCAR-3) and lung cancer (HCC827, H460).
(§2) Cell culture. Human cancer cell lines including pancreatic (PANC-1 and CFPAC-1), lung (HCC827 and H460), stomach (NCI-N87 and KATOIII), urothelial (J82, RT4), prostatic (PC3), breast (MX-1 and HCC 1806), colorectal (HT-29), and ovarian (SK-OV-3 and OVCAR-3) were obtained from the American Type Culture Collection (ATCC) and cultured at 37° C. in a humidified 95% air/5% CO2 atmosphere in the medium recommended by ATCC.
(§3) In vitro cell viability. Cell viability was analyzed as follows: cancer cells including pancreatic (PANC-1 and CFPAC-1), lung (HCC827 and H460), stomach (NCI-N87 and KATOIII), urothelial (J82, RT4), prostatic (PC3) and breast (MX-1 and HCC 1806), colorectal (HT-29) and ovarian (SK-OV-3 and OVCAR-3) were grown on 96 well plates to ˜60% confluence, the cells were starved for 24 h in culture medium containing 0.5% FBS. Cells were then treated with GHRH antagonists MIA602 AVR compounds at concentrations of 1, 2.5 or 5 μM, or vehicle (0.1% DMSO) in quintuplicates for 72 hours. The medium was replaced every 48 hours. Cell viability was measured using CellTiter 96 aqueous one solution kit (Promega). Inhibitory effects of tested AVR compounds in comparison to that of MIA602 are presented as inhibitory potency.
(§4) Inhibitory effects of selected AVR compounds in comparison to that of MIA602 are presented as inhibitory potency (e.g., percentage of inhibition). […] The cell lines tested including lung cancer HCC827 (FIG. 2A), pancreatic cancer CFPAC-1 (FIG. 2B), stomach cancer N87 (FIG. 2C), colon cancer HT-29 (FIG. 2D), breast cancers MX-1 and HCC1806 (FIGS. 2E, F). Based on the results of cell proliferation assay after cancer cells were treated with antagonist at concentration of 5 μM for 72H, the relative inhibitory potency of AVR antagonists in comparison to MIA-602 is summarized in Table 3 A and B. Over 60 AVR compounds were tested in 12 cancer cell lines.
(§5) Based on the results of cell proliferation assay after cancer cells were treated with antagonist at concentration of 5 µM for 72H, * at concentration of 2 µM for 72 H.

KATOIII cells = assay: In vitro cell viability, stomach cancer KATOIII
Method: as §1, §2, §3, §4

HCC827 cells = assay: In vitro cell viability, lung cancer HCC827
How it was run: (§6)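 Cells grown to ~60% confluence and serum-starved 24 h in 0.5% FBS, then exposed to antagonists at 5 μM (some at 2 μM) for 72 h in quintuplicate, with medium replaced every 48 h. Viability read by CellTiter 96 AQueous One (MTS). Values are inhibition relative to MIA602.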

CFPAC-1 cells = assay: In vitro cell viability, pancreatic cancer CFPAC-1
How it was run: as §6

PANC-1 cells = assay: In vitro cell viability, pancreatic cancer PANC-1
Method: as §1, §2, §3, §4

J82 cells = assay: In vitro cell viability, urothelial cancer J82
Method: as §1, §2, §3, §4

RT4 cells = assay: In vitro cell viability, urothelial cancer RT4
Method: as §1, §2, §3
(§7) Inhibitory effects of selected AVR compounds in comparison to that of MIA602 are presented as inhibitory potency (e.g., percentage of inhibition). […] The cell lines tested including lung cancer HCC827 (FIG. 2A), pancreatic cancer CFPAC-1 (FIG. 2B), stomach cancer N87 (FIG. 2C), colon cancer HT-29 (FIG. 2D), breast cancers MX-1 and HCC1806 (FIGS. 2E, F). […]

PC3 cells = assay: In vitro cell viability, prostatic cancer PC3
Method: as §1, §2, §3, §7

HCC1806 cells = assay: In vitro cell viability, breast cancer HCC1806
Method: as §1, §2, §3, §4, §5

MX-1 cells = assay: In vitro cell viability, breast cancer MX-1
Method: as §1, §2, §3, §4, §5

Row | SMILES | Relative inhibitory potency, Stomach N87 (NCI-N87 cells) | Relative inhibitory potency, Stomach KATOIII (KATOIII cells) | Relative inhibitory potency, Lung HCC827 (HCC827 cells) | Relative inhibitory potency, Pancreatic CFPAC-1 (CFPAC-1 cells) | Relative inhibitory potency, Pancreatic Panc-1 (PANC-1 cells) | Relative inhibitory potency, Urothelial J82 (J82 cells) | Relative inhibitory potency, Urothelial RT4 (RT4 cells) | Relative inhibitory potency, Prostatic PC3 (PC3 cells) | Relative inhibitory potency, Breast HCC1806 (HCC1806 cells) | Relative inhibitory potency, Breast MX-1 (MX-1 cells)
1 | CCCC[C@H](NC(=O)[C@@H](NC(=O)[C@H](CC(=O)O)NC(=O)[C@H](CCC(N)=O)NC(=O)[C@H](CC(C)C)NC(=O)[C@H](CC(C)C)NC(=O)[C@H](CCCN)NC(=O)[C@H](Cc1c[nH]cn1)NC(=O)[C@H](C)NC(=O)[C@H](CO)NC(=O)[C@H](CC(C)C)NC(=O)[C@H](CCC(N)=O)NC(=O)[C@H](CC)NC(=O)[C@H](CC(C)C)NC(=O)[C@@H](NC(=O)[C@H](CCCCN)NC(=O)[C@H](CCCNC(=N)N)NC(=O)[C@H](Cc1ccc(OC)cc1)NC(=O)[C@H](CCCNC(=N)N)NC(=O)[C@H](C)NC(=O)[C@@H](NC(=O)[C@H](Cc1ccc(Cl)cc1)NC(=O)[C@@H](NC(=O)[C@H](C)NC(=O)[C@H](CC(=O)O)NC(=O)[C@@H](CCCNC(=N)N)NC(=O)[C@H](Cc1ccc(O)cc1)NC(=O)CCCCCCCCCCCNC(=O)Cc1ccccc1)[C@@H](C)CC)[C@@H](C)O)C(C)C)[C@@H](C)CC)C(=O)N[C@H](CCCNC(=N)N)C(=O)N[C@@H](CCCCNC(=N)N)C(N)=O [AVR-104, PhAC-Ada-Tyr-DArg-Asp-Ala-Ile-Cpa-Thr-Ala-Arg-Tyr(Me)-Arg-Lys-Val-Leu-Abu-Gln-Leu-Ser-Ala-His-Orn-Leu-Leu-Gln-Asp-Ile-Nle-DArg-Har-NH2] ({PhAc-12Ado}-Y[dR]DAI[Phe(4-Cl)]TARY(Me)RKVL[Abu]QLSAH[Orn]LLQDI[Nle][dR][hArg]-NH2) | 2.291 | 1.321 | 1.525 | 1.502 | 1.114 | 3.377 | 1.697 | 1.440 | 1.220 | 1.310
2 | CCCC[C@H](NC(=O)[C@@H](NC(=O)[C@H](CC(=O)O)NC(=O)[C@H](CCC(N)=O)NC(=O)[C@H](CC(C)C)NC(=O)[C@H](CC(C)C)NC(=O)[C@H](CCCN)NC(=O)[C@H](Cc1c[nH]cn1)NC(=O)[C@H](C)NC(=O)[C@H](CO)NC(=O)[C@H](CC(C)C)NC(=O)[C@H](CCC(N)=O)NC(=O)[C@H](CC)NC(=O)[C@H](CC(C)C)NC(=O)[C@@H](NC(=O)[C@H](CCCCN)NC(=O)[C@H](CCCNC(=N)N)NC(=O)[C@H](Cc1ccc(OC)cc1)NC(=O)[C@H](CCCNC(=N)N)NC(=O)[C@H](C)NC(=O)[C@@H](NC(=O)[C@H](Cc1ccc(Cl)cc1)NC(=O)[C@@H](NC(=O)[C@H](C)NC(=O)[C@H](CC(=O)O)NC(=O)[C@@H](CCCNC(=N)N)NC(=O)[C@H](Cc1ccc(O)cc1)NC(=O)CCCCCCCCCCCNC(=O)[C@H](N)Cc1ccccc1)[C@@H](C)CC)[C@@H](C)O)C(C)C)[C@@H](C)CC)C(=O)N[C@H](CCCNC(=N)N)C(=O)N[C@@H](CCCCNC(=N)N)C(N)=O [AVR-120, D-Phe-Ada-Tyr-DArg-Asp-Ala-Ile-Cpa-Thr-Ala-Arg-Tyr(Me)-Arg-Lys-Val-Leu-Abu-Gln-Leu-Ser-Ala-His-Orn-Leu-Leu-Gln-Asp-Ile-Nle-DArg-Har-NH2] (H-[dF][12Ado]Y[dR]DAI[Phe(4-Cl)]TARY(Me)RKVL[Abu]QLSAH[Orn]LLQDI[Nle][dR][hArg]-NH2; N-terminus assumed) | 2.339 | 1.271 | 1.423 | 1.617 | 1.306 | 4.841 | 1.611 | – | – | –

Reference: patent publication US11993640B2, “Treating inflammatory lung disease” (United States Government as represented by the Department …, priority 2019, dated 2024)
